For 34 compounds, IC50 and inhibition results are on record in ChEMBL document CHEMBL2028040, “Malaria Box”.

SMILES strings stand for the structures.

For series [1], the system named is Trypanosoma brucei rhodesiense. The series can be described thus: MMV: Inhibition of Trypanosoma brucei rhodesiense (STIB 900) (HAT in vitro). The class given is functional, organism-based.
In series [2] the test system is Leishmania infantum. The series can be described thus: MMV: Inhibition of Leishmania infantum (MHOM/MA/BE/67) in vitro. The class given is functional, organism-based.
In series [3] the test system is Trypanosoma brucei brucei. Briefly: MMV: Inhibition of Trypanosoma brucei brucei (Squib 427) (HAT in vitro). Type of series: functional, organism-based.
For series [4], the system named is Trypanosoma cruzi. Briefly: MMV: Inhibition of Trypanosoma cruzi (Tulahuen C4 LacZ) (Chagas in vitro). The class given is functional, organism-based.
Series [5] in a line: MMV: Cytotoxicity against human fibroblasts (MRC-5) cells. To be noted: MRC-5 cells (human fibroblasts).
The subject of series [6] is Plasmodium falciparum. Briefly: MMV: Inhibition of Plasmodium falciparum 3D7 at 5uM compound concentration. Type of series: functional.

For orientation: IC50 means the concentration that inhibits the measured activity by half. The inhibition is the share of the control response that was lost under treatment. As for `COc1ccc(-c2cc3c(nn2)-c2ccccc2C3=O)cc1`, the IC50 in series [1], in series [2], in series [3], in series [4] and in series [5] was > 32 µM each time. Also, the inhibition at 5 µM in series [6] came to 97%.
With `O=C(Nc1ccccc1O)c1ccc(Oc2cccc(C(=O)Nc3ccccc3O)c2)cc1`, the IC50 in series [1], in series [2], in series [3], in series [4] and in series [5] was > 32 µM throughout. Besides, the inhibition at 5 µM in series [6] was determined as 91%.
For `FC(F)(F)c1ccc(Nc2nnnc3ccccc23)cc1`, the IC50 in series [1], in series [2], in series [3], in series [4] and in series [5] was > 32 µM in each case. Further, at 5 µM the inhibition in series [6] was 77%.
With `COCCNC(=O)c1ccc(OC2CCN(Cc3ccc(F)c(F)c3)CC2)c(Cl)c1`, the IC50 in series [1] was 16.1 µM; in series [2] it was > 32 µM; in series [3] it was > 32 µM; in series [4], > 32 µM; in series [5] it was > 32 µM. Besides, 5 µM produced 91% inhibition in series [6].
Consider `O=C(NC1CCCC1)c1ccc(N2CCC(NCc3cccc(C(F)(F)F)c3)CC2)cc1`, for which the IC50 in series [1] was 14.4 µM; in series [2], 16.6 µM; in series [3], > 32 µM; in series [4], 21.3 µM; in series [5] it was > 32 µM. Moreover, at 5 µM the inhibition in series [6] was 93%.
For the compound `FC(F)(F)c1cccc(Nc2nc(-c3ccccc3)nc3ncccc23)c1`, the IC50 in series [1] is 25.3 µM; in series [2], > 32 µM; in series [3], > 32 µM; in series [4], 15.3 µM; in series [5], > 32 µM. Also, in series [6], at 5 µM the inhibition was 74%.
As to `Cn1c(C(=O)c2cccc3ccccc23)nc2ccccc21`, the IC50 in series [1] is 29.2 µM; in series [2], 16 µM; in series [3], > 32 µM; in series [4] it was > 32 µM; in series [5] it was > 32 µM. At 5 µM the inhibition in series [6] was 89%.
For the compound `N=c1c2ccccc2nnn1-c1cccc(C(F)(F)F)c1`, the IC50 in series [1], in series [2], in series [3], in series [4] and in series [5] was > 32 µM each time. This compound also gave an inhibition at 5 µM in series [6] of 83%.
For `Cc1ccc(OCCCCCCNCCO)c(C)c1`, the IC50 in series [1] was 3.94 µM; in series [2] it was 16.1 µM; in series [3], 3.72 µM; in series [4], 16 µM; in series [5], > 32 µM. The compound also showed an inhibition at 5 µM in series [6] of 49%.
As to `Oc1ccc(Cl)cc1CNc1nc2ccccc2[nH]1`, the IC50 in series [1] was found to be 16 µM; in series [2], 16 µM; in series [3], 15.6 µM; in series [4], 16.1 µM; in series [5], 15.9 µM. In series [6], at 5 µM the inhibition was 95%.
For the compound `O=C(c1ccccc1F)N(Cc1ccc(Cl)cc1)c1ccccn1`, the IC50 in series [1], in series [2], in series [3], in series [4] and in series [5] was > 32 µM throughout. For the same compound, at 5 µM the inhibition in series [6] was 59%.
In the case of `COCCn1c(C)nc2ccccc2c1=O`, the IC50 in series [1], in series [2], in series [3], in series [4] and in series [5] was > 32 µM in each case. Besides, at 5 µM the inhibition in series [6] was 59%.
With `COc1ccc(C(=O)Nc2ccc(Cl)cc2C(=O)Nc2ccncc2)cc1`, the IC50 in series [1], in series [2], in series [3], in series [4] and in series [5] was > 32 µM in each case. Also, in series [6], at 5 µM the inhibition was 93%.
Take `O=C(Nc1ccc(Cl)cc1)N1CCN(c2ccc3nncn3n2)CC1`: the IC50 in series [1], in series [2], in series [3], in series [4] and in series [5] was > 32 µM each time. The inhibition at 5 µM in series [6] came out at 62%.
As to `O=C(CSc1ccc2nnc(-c3cccc(F)c3)n2n1)Nc1ccc2c(c1)OCO2`, the IC50 in series [1], in series [2], in series [3], in series [4] and in series [5] was > 32 µM each time. This compound also registered an inhibition at 5 µM in series [6] of 92%.
Take `CCN(CC)CCCNc1ccnc2cc3ccccc3cc12`: the IC50 in series [1] was 16.2 µM; in series [2] it was > 32 µM; in series [3], 16.5 µM; in series [4] it was > 32 µM; in series [5], > 32 µM. This compound registered an inhibition at 5 µM in series [6] of 90%.
For `CC(C)(C)C(=O)Nc1ccc(C(=O)Nc2cccc(-c3nc4ccccc4[nH]3)c2)cc1`, the IC50 in series [1] was 3.14 µM; in series [2] it was > 32 µM; in series [3], 16.4 µM; in series [4] it was 11.8 µM; in series [5], 17.9 µM. The compound further showed an inhibition at 5 µM in series [6] of 91%.
Consider `COc1ccc(-c2nonc2NC(=O)c2cccc(C)c2)cc1OC`, for which the IC50 in series [1], in series [2], in series [3], in series [4] and in series [5] was > 32 µM throughout. This compound also returned an inhibition at 5 µM in series [6] of 95%.
Turning to `Cc1ccc(CN2CCC(C(=O)Nc3ccc(-c4cc5ccccc5[nH]4)cc3)CC2)o1`, the IC50 in series [1] amounted to 0.971 µM; in series [2], 13.6 µM; in series [3], 3.33 µM; in series [4], 15.9 µM; in series [5], 15.7 µM. The compound further came in with an inhibition at 5 µM in series [6] of 77%.
Turning to `O=C(Nc1ccsc1C(=O)NC1CCCCC1)c1ccc(F)cc1`, the IC50 in series [1], in series [2], in series [3], in series [4] and in series [5] was > 32 µM in each case. This compound also came in with an inhibition at 5 µM in series [6] of 86%.
`O=C(Nc1ccc(Cl)cc1C(=O)Nc1ccncc1)c1ccc(Cl)cc1Cl`: the IC50 in series [1], in series [2], in series [3], in series [4] and in series [5] was > 32 µM each time. 5 µM produced 94% inhibition in series [6].
For the compound `O=C(Nc1cccc(C(F)(F)F)c1)c1cc(Cl)ccc1O`, the IC50 in series [1] came out at 0.7 µM; in series [2] it was 16.2 µM; in series [3], 0.657 µM; in series [4], 0.343 µM; in series [5], 0.241 µM. Moreover, the inhibition at 5 µM in series [6] was found to be 93%.
Consider `CC(C)(C)c1ccc(C(=O)Nc2nc3ccccc3s2)cc1`, for which the half-inhibitory concentration (IC50) in series [1], in series [2], in series [3], in series [4] and in series [5] was > 32 µM throughout. Moreover, in series [6], 5 µM produced 81% inhibition.
On to `COc1ccc(N2CCN(C(CNC(=O)CC(C)(C)C)c3ccc4c(c3)OCO4)CC2)cc1` (centres undefined), for which the IC50 is 27.6 µM in series [1]; > 32 µM in series [2]; > 32 µM in series [3]; 19.7 µM in series [4]; > 32 µM in series [5]. This compound gave an inhibition at 5 µM in series [6] of 95%.
For the compound `COc1ccc(C2N(C)c3ccccc3N2C)cc1`, the IC50 in series [1], in series [2], in series [3], in series [4] and in series [5] was > 32 µM each time. This compound displayed an inhibition at 5 µM in series [6] of 62%.
As for `O=C(Nc1ccccc1O)c1ccc(-c2ccc(Cl)cc2Cl)o1`, the concentration for half-maximal inhibition (IC50) was 13.5 µM in series [1]; > 32 µM in series [2]; 13.7 µM in series [3]; > 32 µM in series [4]; > 32 µM in series [5]. In series [6], this compound yielded an inhibition at 5 µM of 97%.
For the compound `Oc1ccc(C(=C(Cl)Cl)c2ccc(O)cc2)cc1`, the IC50 in series [1], in series [2], in series [3], in series [4] and in series [5] was > 32 µM throughout. Also, testing at 5 µM in series [6] gave an inhibition of 95%.
Regarding `CCOc1ccc(-c2nc(NC(=O)c3cccc(S(C)(=O)=O)c3)sc2C)cc1`, the IC50 in series [1] was 15.3 µM; in series [2], > 32 µM; in series [3], 14.9 µM; in series [4] it was > 32 µM; in series [5], > 32 µM. Moreover, the inhibition at 5 µM in series [6] turned out to be 95%.
For `COc1ccccc1N1CCN(C(CNS(=O)(=O)c2ccc(Cl)cc2)c2cccnc2)CC1` (centres undefined), the IC50 in series [1] is 16.2 µM; in series [2], > 32 µM; in series [3] it was 16.2 µM; in series [4], 0.899 µM; in series [5] it was > 32 µM. The compound further showed an inhibition at 5 µM in series [6] of 93%.
For the compound `OC1CCCCC1C1(NC(=S)Nc2ccccc2)CCCCC1` (centres undefined), the IC50 in series [1] is 4.12 µM; in series [2] it was 4.32 µM; in series [3], 12.4 µM; in series [4], 12.2 µM; in series [5], > 32 µM. At 5 µM the inhibition in series [6] was 59%.
On to `CCN(CC)CCCNc1nc(-c2ccc(Cl)cc2)nc2ccccc12`, for which the IC50 in series [1] is 0.25 µM; in series [2], 4 µM; in series [3] it was 0.271 µM; in series [4], 8.56 µM; in series [5], 15.8 µM. This compound also gave an inhibition at 5 µM in series [6] of 92%.
`O=c1c2c([nH]c3ccccc13)CCCC2`: the IC50 in series [1], in series [2], in series [3], in series [4] and in series [5] was > 32 µM in each case. For the same compound, in series [6], at 5 µM the inhibition was 82%.
For the compound `CCOC(=O)c1cnc2ccc(OC)cc2c1NCc1ccccc1`, the IC50 in series [1] is 4.95 µM; in series [2], 10.1 µM; in series [3], 14.9 µM; in series [4], 13 µM; in series [5] it was > 32 µM. Moreover, the inhibition at 5 µM in series [6] worked out at 87%.
With `CCOC(=O)c1c[nH]c2c(CC)cccc2c1=O`, the IC50 in series [1], in series [2], in series [3], in series [4] and in series [5] was > 32 µM throughout. In addition, in series [6], the inhibition at 5 µM was determined as 87%.
